The results in this text go back to patent publication US10463681B2, “Combination therapy for skin disorders” (M. Alphabet 1, LLC, priority 2010, dated 2019).

Holding throughout (format): in vivo, human
Data set [1] relates to comedones and nodular and inflammatory lesions (acne in patients). Kind of data set: Placebo-controlled study in acne patients: counts of comedones and nodular and inflammatory lesions on the face. The protocol:
(§1) Thirty-five patients (13-55 years of age) were enrolled in a placebo-controlled study. Twenty-seven patients were treated with oral administration of a capsule containing the ingredients of Formula 1 and eight patients were treated with a placebo capsule containing only doxycycline hyclate (50 mg). Patients received Formula 1 or placebo twice daily for twelve weeks. The number of comedones (“blackheads”) and nodular and inflammatory lesions (>2 mm in diameter) were counted on the face of each patient at baseline and at two weeks, six weeks and twelve weeks post-treatment.
The results are shown as the change at baseline and the percent change from baseline for each outcome measure after twelve weeks of treatment. Data are reported as mean values (±standard error of the mean, SEM) for each outcome measure. The results for ‘total lesions’ includes both comedones and inflammatory and nodular lesions.

Data set [2] relates to inflammatory and nodular lesions and comedones (acne in patients). Kind of data set: Investigator Global Assessment (IGA) score of the appearance of inflammatory and nodular lesions and comedones. The following applies: score of 1 to 10, 10 indicating the most improvement. The protocol: as §1
Next, an Investigator Global Assessment (IGA) score measuring the improvement of the appearance of inflammatory and nodular lesions and comedones was determined for each patient at baseline and 2 weeks and 6 weeks post-treatment. For this assessment the investigators were asked to evaluate whether their patient's lesions and comedones improved using a score of 1 to 10 with 10 indicating the most improvement.

Data set [3] has as its system patients. Briefly: Untoward effects in the placebo-controlled patient study. As to conditions: twice daily for twelve weeks, oral capsule. The protocol: as §1
Data set [4] has as its system porphyrins, a measure of bacteria in pores. Briefly: Visia complexion analysis: average number of porphyrins. The protocol:
Thirty-five patients (13-55 years of age) were enrolled in a placebo-controlled study. Twenty-seven patients were treated with oral administration of a capsule containing the ingredients of Formula 1 and eight patients were treated with a placebo capsule containing only doxycycline hyclate (50 mg). Patients received Formula 1 or placebo twice daily for twelve weeks. The number of comedones (“blackheads”) and nodular and inflammatory lesions (>2 mm in diameter) were counted on the face of each patient at baseline and at two weeks, six weeks and twelve weeks post-treatment. […] Lastly, the Visia™ complexion analysis system was used to assess the average number of porphyrins, a measure of bacteria in pores, in each patient.

Regarding `C[C@H]1c2cccc(O)c2C(O)=C2C(=O)[C@]3(O)C(O)=C(C(N)=O)C(=O)[C@@H](N(C)C)[C@@H]3[C@@H](O)[C@@H]21` [Placebo, doxycycline hyclate], in data set [1] (12 weeks vs baseline), the “Total Comedones, Change from baseline, %” value is −27.4%; the “Total Inflammatory and Nodular Lesions, Change from baseline, %” value is listed as −50.9%; the “Total Lesions, Change from baseline, %” value is recorded as −35.6%. The “reduction of the total number of lesions (comedones and inflammatory and nodular lesions)” value in data set [1] (after twelve weeks of treatment) is 35.6%. Also, in data set [1] (twelve weeks vs baseline), the “reduction of the average number of comedones at twelve weeks compared to baseline” value was found to be 27.4%. For the same compound, the “average number of comedones, week 2” value in data set [1] (week 2) worked out at 29.0. Also, the “average number of comedones, week 6” value in data set [1] (week 6) is recorded as 11.8. Further, the “IGA score, baseline” value in data set [2] (baseline) came to 2.3. For the same compound, the “IGA score, six weeks” value in data set [2] (six weeks) amounted to 2.5. Further, in data set [3], the serious untoward effects result is recorded as “No serious untoward effects”. Also, the “Por (BL), average number of porphyrins” value in data set [4] (baseline) is listed as 31.6. For the same compound, in data set [4] (week 2), the “Por (W2), average number of porphyrins” value came to 25.8. Moreover, the “Por (W6), average number of porphyrins” value in data set [4] (week 6) came out at 15.7. The “Por (W12), average number of porphyrins” value in data set [4] (week 12) came out at 35.5.
